Assay results from patent publication US11517578B1, “Topical formulations containing erythritol and methods of treating skin conditions” (InnoMed Technologies, Inc., priority 2021, dated 2022).
Entries after “also recorded” stand apart in the source; their conditions may differ.

Test system: facial acne
Experiment: Topical treatment of facial acne in patients (case examples 1-3)
Type: in vivo, human
Conditions: patient history: OTC benzoyl peroxide gels and washes tried before the formulation
From the text: In this example, a person visits a healthcare professional and complains of facial acne that has been persistent for the past three years. They describe sporadic facial breakouts that began gradually, varied in severity and never completely cleared. They explain that the breakouts contribute to feelings of low self-esteem.
The healthcare professional administers the formulation of erythritol and zinc to the patient. As detailed in Table 2, the formulation includes erythritol (3.75%) and zinc chloride (1.25%). The formulation allows for effective transdermal administration of the zinc chloride-erythritol mixture which can prevent or ameliorate bacterial growth at or near skin pores and hair follicles.
The patient is also advised to continue daily use of an OTC facial wash. After washing and rinsing the face, the patient applies the formulation to the entire face. After five to ten minutes, the face can be rinsed with water. The routine is repeated each day (i.e., twice per day). Within ten days, the acne is resolved by about 80% (i.e., about 80% of the acne is gone). The comedones, papules and pustules are less apparent and only visible at close proximity. The patient resumes twice daily use of the formulation. Within two weeks the signs/symptoms of acne are resolved by about 95%. The patient has a clear complexion. […]

O=C(OOC(=O)c1ccccc1)c1ccccc1 [benzoyl peroxide]
improvement of facial acne: without improvement; also recorded: minimal or no significant improvement
